Data: ChEMBL document CHEMBL1949579, “2-Arylbenzofuran, flavonoid, and tyrosinase inhibitory constituents of Morus yunnanensis” (J Nat Prod, 2012)

Each compound was assayed against T1, Tyrosinase (Agaricus bisporus, UniProt O42713) (assay: Inhibition of mushroom tyrosinase assessed as oxidation of L-dopa by spectrophotometric analysis).
T1 sequence (O42713 whole entry): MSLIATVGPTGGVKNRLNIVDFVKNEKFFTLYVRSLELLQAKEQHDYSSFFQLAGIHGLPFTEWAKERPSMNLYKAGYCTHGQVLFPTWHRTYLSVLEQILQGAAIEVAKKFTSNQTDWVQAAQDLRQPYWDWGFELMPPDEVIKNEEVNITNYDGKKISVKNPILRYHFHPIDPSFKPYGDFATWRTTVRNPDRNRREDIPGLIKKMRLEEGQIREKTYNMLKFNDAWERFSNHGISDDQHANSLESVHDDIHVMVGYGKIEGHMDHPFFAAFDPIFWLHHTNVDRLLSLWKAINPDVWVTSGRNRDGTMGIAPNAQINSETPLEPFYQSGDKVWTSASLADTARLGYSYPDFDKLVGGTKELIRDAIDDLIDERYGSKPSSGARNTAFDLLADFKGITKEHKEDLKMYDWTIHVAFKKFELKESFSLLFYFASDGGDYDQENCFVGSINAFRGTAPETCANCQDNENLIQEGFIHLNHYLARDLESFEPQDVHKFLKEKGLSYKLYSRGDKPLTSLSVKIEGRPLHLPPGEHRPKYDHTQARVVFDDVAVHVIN

Row | IC50 [nM] | Structure (SMILES)
1 | 150 | CC(C)=CCc1c(O)ccc2c1O[C@H](c1ccc(O)cc1O)CC2 [MORUSYUNNANSINS F]
2 | 1430 | COc1ccc2c(c1C/C=C(\C)CO)O[C@H](c1ccc(O)cc1O)CC2 [MORUSYUNNANSINS E]
3 | 120 | COc1ccc2c(c1CCO)O[C@@H](c1ccc(O)cc1O)CC2

The compounds below were run against T2, Tyrosinase (Agaricus bisporus) (UniProt O42713) (assay: Inhibition of mushroom tyrosinase assessed as oxidation of L-dopa at 25 uM by spectrophotometric analysis).
T2 sequence (whole entry): T1 sequence (O42713 whole entry)

Row | inhibition [%] | Structure (SMILES)
4 | < 50 | CC(C)=CCc1c(O)ccc2c1O[C@H](c1ccc(O)cc1)CC2
5 | < 50 | COc1ccc([C@@H]2CCc3ccc(O)c(CC=C(C)C)c3O2)c(O)c1
6 | < 50 | COc1ccc(CCC(c2ccc(O)cc2O)c2cc([C@@H]3CCc4ccc(OC)c(CC=C(C)C)c4O3)c(O)cc2O)c(O)c1CC=C(C)C (some centres not stated)
7 | < 50 | COc1ccc(CCC(c2ccc(O)cc2O)c2cc([C@H]3CCc4ccc(OC)c(CC=C(C)C)c4O3)c(O)cc2O)c(O)c1CC=C(C)C (some centres not stated)
